Results on 10 compounds are retold here after patent EP0262053A2, “Amino-acid derivatives, their preparation and pharmaceutical compositions containing them” (CENTRE NATIONAL DE LA RECHERCHE SCIENTIFIQUE (CNRS), priority 1986, dated 1988).

For experiment [1], the target named is T1, enképhalinase purifiée du rein de lapin (Oryctolagus cuniculus, UniProt P08049).
T1 construct: l'enképhalinase purifiée du rein de lapin; from tissue; host or cells: rabbit kidney
T1 sequence (P08049 1-750): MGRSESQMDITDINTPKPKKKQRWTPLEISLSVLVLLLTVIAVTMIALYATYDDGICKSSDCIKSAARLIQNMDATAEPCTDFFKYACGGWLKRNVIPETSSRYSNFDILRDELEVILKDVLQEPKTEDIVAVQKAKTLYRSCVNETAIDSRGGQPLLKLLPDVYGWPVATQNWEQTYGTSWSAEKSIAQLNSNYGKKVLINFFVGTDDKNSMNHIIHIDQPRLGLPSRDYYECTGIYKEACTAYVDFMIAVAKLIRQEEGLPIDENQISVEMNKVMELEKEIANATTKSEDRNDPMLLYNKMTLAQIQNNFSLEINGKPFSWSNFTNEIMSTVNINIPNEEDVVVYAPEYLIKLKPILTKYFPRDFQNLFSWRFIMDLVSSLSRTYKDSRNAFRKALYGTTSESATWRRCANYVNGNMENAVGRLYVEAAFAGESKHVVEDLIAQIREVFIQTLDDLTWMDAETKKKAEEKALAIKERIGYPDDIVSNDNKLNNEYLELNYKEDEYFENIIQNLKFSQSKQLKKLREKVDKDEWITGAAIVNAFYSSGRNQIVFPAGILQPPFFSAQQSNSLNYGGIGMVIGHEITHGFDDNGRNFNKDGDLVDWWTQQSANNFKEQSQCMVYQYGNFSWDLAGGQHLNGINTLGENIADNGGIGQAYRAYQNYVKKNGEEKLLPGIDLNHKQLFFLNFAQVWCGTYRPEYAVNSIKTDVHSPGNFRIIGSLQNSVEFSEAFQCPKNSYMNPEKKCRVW
Description: Inhibitory power on enkephalinase (endopeptidase), substrate [3H]D-Ala2-Leu5 enkephalin. Conditions: purified rabbit kidney enzyme, 20 min at 25°C, Tris-HCl pH 7.4; read-out: Enképhalinase(M), concentrations inhibitrices 50 % (converted). The format is biochemical. As to the method:
Le pouvoir inhibiteur est déterminé sur de l'enképhalinase purifiée du rein de lapin en suivant le protocole décrit dans la littérature (Llorens, C., B. Malfroy, J.C. Schwartz, G. Gacel, B.P. Roques et al., 1982, J. Neurochem. 39, 1081).
Après une pré-incubation de 15 minutes à 25°C, une aliquote de protéines est incubée pendant 20 minutes à 25°C en présence de 20 nanomoles de [³H]D-Ala²-Leu⁵ enképhaline et du produit à tester dans le tampon Tris-HCl (pH 7.4) 50 mM. On arrête la réaction par addition d'HCl 0.2 N. Le métabolite tritié [³H]Tyr-D-Ala-Gly est séparé de la D-Ala²-Leu⁵-enképhaline par chromatographie sur colonne de porapak.
(§1) L'activité des différents produits est exprimée en concentrations inhibitrices 50 %.

Experiment [2] deals with T2, aminopeptidase purifiée du rein de lapin (Oryctolagus cuniculus, UniProt P15541).
T2 construct: purifiée du rein de lapin; from tissue; host or cells: rabbit kidney
T2 sequence (P15541 1-966): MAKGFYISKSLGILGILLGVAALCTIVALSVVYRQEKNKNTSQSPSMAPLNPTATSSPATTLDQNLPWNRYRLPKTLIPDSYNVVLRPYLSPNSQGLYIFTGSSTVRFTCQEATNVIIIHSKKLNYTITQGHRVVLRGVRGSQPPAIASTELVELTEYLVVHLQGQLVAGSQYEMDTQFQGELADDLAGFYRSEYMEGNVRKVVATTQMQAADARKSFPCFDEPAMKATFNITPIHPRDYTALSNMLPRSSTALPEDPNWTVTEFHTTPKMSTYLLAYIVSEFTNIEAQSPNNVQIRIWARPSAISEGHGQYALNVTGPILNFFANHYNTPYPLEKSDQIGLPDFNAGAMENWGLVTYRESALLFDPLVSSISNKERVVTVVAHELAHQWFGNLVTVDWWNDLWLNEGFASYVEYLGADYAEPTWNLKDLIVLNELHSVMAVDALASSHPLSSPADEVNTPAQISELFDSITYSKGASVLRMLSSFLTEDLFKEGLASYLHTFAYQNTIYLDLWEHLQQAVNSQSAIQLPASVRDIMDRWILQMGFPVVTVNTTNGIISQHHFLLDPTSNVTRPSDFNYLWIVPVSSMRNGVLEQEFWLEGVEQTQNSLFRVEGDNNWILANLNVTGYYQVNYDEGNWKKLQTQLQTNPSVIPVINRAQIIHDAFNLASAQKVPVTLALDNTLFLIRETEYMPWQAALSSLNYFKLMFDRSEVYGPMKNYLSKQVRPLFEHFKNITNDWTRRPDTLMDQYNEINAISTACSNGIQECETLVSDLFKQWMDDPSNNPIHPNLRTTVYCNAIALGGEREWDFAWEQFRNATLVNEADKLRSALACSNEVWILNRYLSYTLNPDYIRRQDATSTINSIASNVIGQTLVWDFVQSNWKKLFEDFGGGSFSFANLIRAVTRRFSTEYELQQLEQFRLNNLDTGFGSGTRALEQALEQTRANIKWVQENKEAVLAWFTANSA
Kind of experiment: Inhibitory power on aminopeptidase, substrate [3H]Leu5-enkephalin. Format: biochemical. Conditions: purified rabbit kidney enzyme, [3H]Leu5-enkephalin substrate; read-out: Aminopeptidase(M), concentrations inhibitrices 50 % (converted).
Source text: Le pouvoir inhibiteur est mesuré sur l'aminopeptidase purifiée du rein de lapin en suivant le protocole décrit dans la littérature (Romaine Bouboutou, Gilles Waksman, Joceyline Deim, Marie-Claude Fournié-Zaluski and Bernard P. Roques, Life Sciences, vol. 35, pp. 1023-1030, 1984).
Le dosage est conduit d'une manière identique au précédent, en utilisant la [³H]Leu⁵-enképhaline à la place de la [³H]D-Ala²-Leu⁵-enképhaline comme substrat.
as §1

Experiment [3] deals with T3, dipeptidylaminopeptidase purifiée à partir du cerveau de rat (Rattus norvegicus, UniProt O55096).
T3 construct: purifiée à partir du cerveau de rat; from tissue; host or cells: rat brain
T3 sequence (O55096 2-738 limits assumed): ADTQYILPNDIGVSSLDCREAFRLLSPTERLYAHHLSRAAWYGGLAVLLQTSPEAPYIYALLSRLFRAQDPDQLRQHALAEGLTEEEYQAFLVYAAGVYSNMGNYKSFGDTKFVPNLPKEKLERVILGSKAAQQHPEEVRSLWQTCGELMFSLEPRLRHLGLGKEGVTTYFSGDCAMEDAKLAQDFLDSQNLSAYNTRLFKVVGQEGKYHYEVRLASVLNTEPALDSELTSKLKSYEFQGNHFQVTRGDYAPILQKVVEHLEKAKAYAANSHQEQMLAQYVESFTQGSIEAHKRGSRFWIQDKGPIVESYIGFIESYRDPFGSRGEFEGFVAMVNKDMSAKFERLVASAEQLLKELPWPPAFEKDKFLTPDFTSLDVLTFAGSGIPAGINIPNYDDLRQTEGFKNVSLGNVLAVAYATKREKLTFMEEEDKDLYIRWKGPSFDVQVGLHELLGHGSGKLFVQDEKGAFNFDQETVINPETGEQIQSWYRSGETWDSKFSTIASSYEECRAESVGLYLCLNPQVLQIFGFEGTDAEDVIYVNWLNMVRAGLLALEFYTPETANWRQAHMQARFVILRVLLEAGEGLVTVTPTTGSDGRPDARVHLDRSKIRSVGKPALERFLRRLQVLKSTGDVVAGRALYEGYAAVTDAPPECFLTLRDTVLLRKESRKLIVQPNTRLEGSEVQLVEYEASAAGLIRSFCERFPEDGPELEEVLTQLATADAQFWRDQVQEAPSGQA
Kind of experiment: Inhibitory power on dipeptidylaminopeptidase, substrate [3H]Leu5-enkephalin. Conditions: enzyme purified from rat brain, [3H]Leu5-enkephalin substrate; read-out: Dipeptidyla-minopeptida-se(M), concentrations inhibitrices 50 % (converted). The format is biochemical.
Source text: Le pouvoir inhibiteur est mesuré sur la dipeptidylaminopeptidase purifiée à partir du cerveau de rat en suivant le protocole décrit (Romaine Bouboutou, Gilles Waksman, Joceyline Deim, Marie-Claude Fournié-Zaluski and Bernard P. Roques, Life Sciences, vol. 35, pp. 1023-1030, 1984).. On utilise également la [³H]Leu⁵-enképhaline comme substrat.
as §1

In another experiment the test system is souris. Kind of experiment: Hot plate test (licking and jump reflex, plate at 55°C). Conditions: mouse, intracerebroventricular, 50 )g, plate 55°C; for Saut: cut off 240 s. Format: in vivo. How it is done:
Il concerne le réflexe de lèchement et de saut de la souris sur une plaque chauffée à 55°C selon la méthode de Jacob et coll. (Arch. Int. Pharmacodyn. 122, 287-300, 1959 : 133, 296-300, 1961).
Administrés par voie intracérébroventriculaire chez la souris, les inhibiteurs testés présentent un effet propre à la fois sur le temps de latence du saut et sur celui des lèchements. Ces effets sont reversés par la naloxone (antagoniste morphinique).
Le cut off correspond au moment où la souris est enlevée si elle n'a pas sauté ;
On the technique in general: In hot-plate and tail-flick tests a longer latency is read as antinociception.

With `O=C(O)C[C@H](Cc1ccccc1)NC(=O)[C@@H](CC(=O)NO)Cc1ccccc1` [compound 5, N[N(hydroxy)aminocarbonyl-3 benzyl-2 oxo-1 propyl] benzyl-3 β alanine], the IC50 in experiment [1] was 2e-09 M; in experiment [2], 2e-08 M; in experiment [3], 5e-10 M.

Take “N[N-hydroxyamino) carbonyl-3 benzyl-2 oxo-1 propyl] phényl-2 β-alanine [compound 6]”: the IC50 in experiment [1] was 1.5e-09 M; in experiment [2] it was 8e-08 M; in experiment [3], 1e-09 M.

In the case of `O=C(O)CCC(=O)N[C@@H](CC(=O)NO)Cc1ccccc1` [compound 8, N[carboxy-3 oxo-1 propyl) amino]-3 phenyl-4 (Nʹ[hydroxyamino]-1 oxo-1 butane], the IC50 in experiment [1] is 1.4e-09 M; in experiment [2], 1e-05 M; in experiment [3] it was 8e-07 M.

Take `CC(CC(=O)O)NC(=O)C(CC(=O)NO)Cc1ccccc1` (stereo not drawn) [compound 2, N[N(hydroxy)aminocarbonyl-3 benzyl-2 oxo-1 propyl] methyl-3 β alanine]: the IC50 in experiment [1] was 5e-09 M; in experiment [2], 3e-07 M; in experiment [3], 5e-10 M.

In the case of `CC(CC(=O)O)C(=O)N[C@@H](CC(=O)NO)Cc1ccccc1` (stereo partly shown) [compound 9], the values for the IC50 in experiment [1], in experiment [2] and in experiment [3] were 9e-10 M, 1e-05 M and 1.8e-07 M, respectively.

Take `O=C(O)CCNC(=O)C(CC(=O)NO)Cc1ccccc1` (racemic) [compound 1, N[N(hydroxy)amino-carbonyl-3 benzyl-2 Oxo-1 propyl] β-alanine]: the figures for the IC50 in experiment [1], in experiment [2] and in experiment [3] were 2e-09 M, 5e-07 M and 3e-08 M, respectively.

Take `CC(CC(=O)NC(CC(=O)NOCc1ccccc1)Cc1ccccc1)C(=O)O` (stereo not shown) [compound 10]: the IC50 in experiment [1] is 5e-10 M; in experiment [2], 4e-06 M; in experiment [3], 8e-07 M.

Take “Acide N[(hydroxy amino carbonyl)-3 benzyl-2 oxo-1 propyl] amino-2 cyclohéxane carboxylique [compound 7]”: the IC50 in experiment [1] is 4e-09 M; in experiment [2] it was 5e-08 M; in experiment [3], 1.5e-09 M. Further, the “Lèchements (s)” value in the experiment with souris (cut off 30 s) was 26,2 s. For the same compound, the “Saut” value in the experiment on souris stood at 240 s.

In the case of `CC(CNC(=O)C(CC(=O)NO)Cc1ccccc1)C(=O)O` (stereo not drawn) [compound 3, N[N(hydroxy)aminocarbonyl-3 benzyl-2 oxo-1 propyl] methyl-2 β alanine], the values for the IC50 in experiment [1], in experiment [2] and in experiment [3] were 2e-09 M, 4e-07 M and 2e-08 M, respectively.

Consider “Acide [N[N(hydroxyamino) carbonyl-1 phényl-3] propyl]-2 carboxamido-2 cyclohéxanoïque [compound 11]”, for which the IC50 in experiment [1] is 5e-10 M; in experiment [2], 7e-08 M; in experiment [3], 2e-09 M. Moreover, in the experiment on souris (cut off 30 s), the “Lèchements” value is 30 s. The “Saut” value in the experiment on souris turned out to be 240 s.
